Results on 18 compounds are retold here after patent publication US4150023A, “Hydrosoluble rifamycins and process for their preparation” (Intreprinderea de Antibiotice Iasi, priority 1977, dated 1979).

Converted amounts (≈) assume the structure as drawn. Structures can show the parent of a compound that is named as a salt. Bounds are passed on as bounds.

One data set in a line: physchem. The data set is classed as physicochemical. Here is the method:
When the work is carried out as in above mentioned examples, using 2 mol of sodium ethylhexanoate versus 1 mol of rifamycin derivative, the soluble forms of other derivatives, presented in Table 1, are obtained using the specific volumes of solvent, and resulting in the products characterized by the main proprieties tabulated.

Data set [1] relates to ill subjects treated with rifampicin. Particulars: cited from earlier work.

Regarding `CO[C@H]1/C=C/O[C@@]2(C)Oc3c(C)c(O)c4c(O)c(c(C=NOCCBr)c(O)c4c3C2=O)NC(=O)/C(C)=C\C=C\[C@H](C)[C@H](O)[C@@H](C)[C@@H](O)[C@@H](C)[C@H](OC(C)=O)[C@@H]1C` [3-(2-bromethyloximinomethyl)-rifamycin SV, reference compound], in “physchem” (Solubility as such), the solubility (as a rule, the concentration that dissolves in the medium under given conditions) amounted to 2950 µg/mL (≈ 3.48 mM).

With `CCON=Cc1c2c(O)c3c(O)c(C)c4c(c3c1O)C(=O)[C@@](C)(O/C=C/[C@H](OC)[C@@H](C)[C@@H](OC(C)=O)[C@H](C)[C@H](O)[C@H](C)[C@@H](O)[C@@H](C)/C=C/C=C(/C)C(=O)N2)O4` [3-(ethyloximinomethyl)rifamycin SV, reference compound], in the data set “physchem” (Solubility as such), the solubility worked out at 120 µg/mL (≈ 0.156 mM).

`CO[C@H]1/C=C/O[C@@]2(C)Oc3c(C)c(O)c4c(O)c(c(C=NNC(=O)c5ccncc5)c(O)c4c3C2=O)NC(=O)/C(C)=C\C=C\[C@H](C)[C@H](O)[C@@H](C)[C@@H](O)[C@@H](C)[C@H](OC(C)=O)[C@@H]1C` [3-(isonicotinoylhydrazonomethyl)-rifamycin SV, reference compound] came in with a solubility in “physchem” (Solubility as such) of 920 µg/mL (≈ 1.09 mM). `CO[C@H]1/C=C/O[C@@]2(C)Oc3c(C)c(O)c4c(O)c(c(C=NNC(=O)Cc5ccccc5)c(O)c4c3C2=O)NC(=O)/C(C)=C\C=C\[C@H](C)[C@H](O)[C@@H](C)[C@@H](O)[C@@H](C)[C@H](OC(C)=O)[C@@H]1C` [3-(phenylacetylhydrazonomethyl)-rifamycin SV, reference compound] showed a solubility in “physchem” (Solubility as such) of 4800 µg/mL (≈ 5.59 mM). On the same count and under the same terms, the same measure for `CO[C@H]1/C=C/O[C@@]2(C)Oc3c(C)c(O)c4c(O)c(c(C=NNc5ccc(-c6ccc(C)c(C)c6)nn5)c(O)c4c3C2=O)NC(=O)/C(C)=C\C=C\[C@H](C)[C@H](O)[C@@H](C)[C@@H](O)[C@@H](C)[C@H](OC(C)=O)[C@@H]1C` [3-[3'-(3",4"-dimethylphenyl)-pyridazinyl-6'-hydrazonomethyl]-rifamycin SV, reference compound]: under 100 µg/mL; for `CO[C@H]1/C=C/O[C@@]2(C)Oc3c(C)c(O)c4c(O)c(c(C=NNc5ccc(-c6ccc(C)cc6)nn5)c(O)c4c3C2=O)NC(=O)/C(C)=C\C=C\[C@H](C)[C@H](O)[C@@H](C)[C@@H](O)[C@@H](C)[C@H](OC(C)=O)[C@@H]1C` [3-[3'-(p-tolyl)-pyridazinyl-6'-hydrazonomethyl]-rifamycin SV, reference compound]: 270 µg/mL (≈ 0.297 mM). Same read-out and setting: next, `CO[C@H]1/C=C/O[C@@]2(C)Oc3c(C)c(O)c4c(O)c(c(C=NO)c(O)c4c3C2=O)NC(=O)/C(C)=C\C=C\[C@H](C)[C@H](O)[C@@H](C)[C@@H](O)[C@@H](C)[C@H](OC(C)=O)[C@@H]1C` [3-formylrifamycin SV oxime, reference compound]: 5500 µg/mL (≈ 7.42 mM). Consider `CO[C@H]1/C=C/O[C@@]2(C)Oc3c(C)c(O)c4c(O)c(c(C=NNC(=O)COc5ccccc5)c(O)c4c3C2=O)NC(=O)/C(C)=C\C=C\[C@H](C)[C@H](O)[C@@H](C)[C@@H](O)[C@@H](C)[C@H](OC(C)=O)[C@@H]1C` [3-phenoxyacetylhydrazonomethyl)-rifamysin SV, reference compound], for which the solubility in “physchem” (Solubility as such) turned out to be 2750 µg/mL (≈ 3.15 mM). On to `CO[C@H]1/C=C/O[C@@]2(C)Oc3c(C)c(O)c4c(O)c(c(C=NO)c(O)c4c3C2=O)NC(=O)/C(C)=C\C=C\[C@H](C)[C@H](O)[C@@H](C)[C@@H](O)[C@@H](C)[C@H](OC(C)=O)[C@@H]1C` [Example 7, 3-formylrifamycin SV oxime], for which the Solubility soluble form entry in “physchem” was “over 100 mg/ml”. The same measure, in the same setting: the same measure for `CO[C@H]1/C=C/O[C@@]2(C)Oc3c(C)c(O)c4c(O)c(c(C=NO)c(O)c4c3C2=O)NC(=O)/C(C)=C\C=C\[C@H](C)[C@H](O)[C@@H](C)[C@@H](O)[C@@H](C)[C@H](OC(C)=O)[C@@H]1C` [Example 8, 3-formylrifamycin SV oxime (K salt)]: 25000 µg/mL. For the compound `CCON=Cc1c2c(O)c3c(O)c(C)c4c(c3c1O)C(=O)[C@@](C)(O/C=C/[C@H](OC)[C@@H](C)[C@@H](OC(C)=O)[C@H](C)[C@H](O)[C@H](C)[C@@H](O)[C@@H](C)/C=C/C=C(/C)C(=O)N2)O4` [Example 9, 3-(ethyloximinomethyl)rifamycin SV], the solubility in “physchem” (Solubility soluble form) was over 100000 µg/mL.

In turn, `CO[C@H]1/C=C/O[C@@]2(C)Oc3c(C)c(O)c4c(O)c(c(C=NOCCBr)c(O)c4c3C2=O)NC(=O)/C(C)=C\C=C\[C@H](C)[C@H](O)[C@@H](C)[C@@H](O)[C@@H](C)[C@H](OC(C)=O)[C@@H]1C` [Example 10, 3-(2-bromethyloximinomethyl)-rifamycin SV] gave a solubility in the data set “physchem” (Solubility soluble form) of over 100000 µg/mL. The same measure, in the same setting: next, `CO[C@H]1/C=C/O[C@@]2(C)Oc3c(C)c(O)c4c(O)c(c(C=NNc5ccc(-c6ccc(C)cc6)nn5)c(O)c4c3C2=O)NC(=O)/C(C)=C\C=C\[C@H](C)[C@H](O)[C@@H](C)[C@@H](O)[C@@H](C)[C@H](OC(C)=O)[C@@H]1C` [Example 11, 3-[3'-(p-tolyl)-pyridazinyl-6'-hydrazonomethyl]-rifamycin SV]: 540 µg/mL (≈ 0.595 mM).

In turn, `CO[C@H]1/C=C/O[C@@]2(C)Oc3c(C)c(O)c4c(O)c(c(C=NNc5ccc(-c6ccc(C)c(C)c6)nn5)c(O)c4c3C2=O)NC(=O)/C(C)=C\C=C\[C@H](C)[C@H](O)[C@@H](C)[C@@H](O)[C@@H](C)[C@H](OC(C)=O)[C@@H]1C` [Example 12, 3-[3'-(3",4"-dimethylphenyl)-pyridazinyl-6'-hydrazonomethyl]-rifamycin SV] registered a solubility in “physchem” (Solubility soluble form) of 540 µg/mL (≈ 0.586 mM). The same measure, in the same setting: the same measure for `CO[C@H]1/C=C/O[C@@]2(C)Oc3c(C)c(O)c4c(O)c(c(C=NNC(=O)c5ccncc5)c(O)c4c3C2=O)NC(=O)/C(C)=C\C=C\[C@H](C)[C@H](O)[C@@H](C)[C@@H](O)[C@@H](C)[C@H](OC(C)=O)[C@@H]1C` [Example 13, 3-(isonicotinoylhydrazonomethyl)-rifamycin SV]: 168000 µg/mL (≈ 199 mM).

In the data set “physchem” (Solubility soluble form), `CO[C@H]1/C=C/O[C@@]2(C)Oc3c(C)c(O)c4c(O)c(c(C=NNC(=O)Cc5ccccc5)c(O)c4c3C2=O)NC(=O)/C(C)=C\C=C\[C@H](C)[C@H](O)[C@@H](C)[C@@H](O)[C@@H](C)[C@H](OC(C)=O)[C@@H]1C` [Example 14, 3-(phenylacetylhydrazonomethyl)-rifamycin SV] yielded a solubility of 71000 µg/mL (≈ 82.8 mM). Same read-out and setting: the same measure for `CO[C@H]1/C=C/O[C@@]2(C)Oc3c(C)c(O)c4c(O)c(c(C=NNC(=O)COc5ccccc5)c(O)c4c3C2=O)NC(=O)/C(C)=C\C=C\[C@H](C)[C@H](O)[C@@H](C)[C@@H](O)[C@@H](C)[C@H](OC(C)=O)[C@@H]1C` [Example 15]: 128000 µg/mL (≈ 146 mM).

As for `CO[C@H]1/C=C/O[C@@]2(C)Oc3c(C)c(O)c4c(O)c(c(/C=N/N5CCN(C)CC5)c(O)c4c3C2=O)NC(=O)/C(C)=C\C=C\[C@H](C)[C@H](O)[C@@H](C)[C@@H](O)[C@@H](C)[C@H](OC(C)=O)[C@@H]1C` [rifampicin], the “unsuccessful therapeutic treatments caused by hepatobiliar alterations” value in data set [1] is recorded as “over 10%”.
